Several values for one entry are separate records, joined by “and”; a condition that tells them apart may be missing. Equal entries are not always repeated.
System: 186277-243-T-J2-PDC spheroids with HUVEC/MSC, viability
Test: Anticancer human tumor 186277-243-T-J2-PDC patient-derived colon adenocarcinoma cell line growth inhibition [CLK]
Details: for viability, T/C: stronger effect = lower value
Method in brief: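 Multi-cell-type spheroids combined patient-derived tumor cells with HUVEC endothelial cells and human mesenchymal stem cells. Paired agents were dosed in half-log steps down from about clinical Cmax, or from 10 microM where Cmax was unknown.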

[1] = curve of first compound, second compound 0.0316 µM
[2] = curve of first compound, second compound 0.1 µM
[3] = curve of first compound, second compound 0.316 µM
[4] = curve of first compound, second compound 1 µM
[5] = curve of first compound, second compound 3.16 µM
[6] = curve of first compound, second compound 10 µM
[7] = second compound 0.0316 µM, first compound 0.0316 µM
[8] = second compound 0.0316 µM, first compound 0.1 µM
[9] = second compound 0.0316 µM, first compound 0.316 µM
[10] = second compound 0.0316 µM, first compound 1 µM
[11] = second compound 0.0316 µM, first compound 3.16 µM
[12] = second compound 0.0316 µM, first compound 10 µM
[13] = second compound 0.1 µM, first compound 0.0316 µM
[14] = second compound 0.1 µM, first compound 0.1 µM
[15] = second compound 0.1 µM, first compound 0.316 µM
[16] = second compound 0.1 µM, first compound 1 µM
[17] = second compound 0.1 µM, first compound 3.16 µM
[18] = second compound 0.1 µM, first compound 10 µM
[19] = second compound 0.316 µM, first compound 0.0316 µM
[20] = second compound 0.316 µM, first compound 0.1 µM
[21] = second compound 0.316 µM, first compound 0.316 µM
[22] = second compound 0.316 µM, first compound 1 µM
[23] = second compound 0.316 µM, first compound 3.16 µM
[24] = second compound 0.316 µM, first compound 10 µM
[25] = second compound 1 µM, first compound 0.0316 µM
[26] = second compound 1 µM, first compound 0.1 µM
[27] = second compound 1 µM, first compound 0.316 µM
[28] = second compound 1 µM, first compound 1 µM
[29] = second compound 1 µM, first compound 3.16 µM
[30] = second compound 1 µM, first compound 10 µM
[31] = second compound 3.16 µM, first compound 0.0316 µM
[32] = second compound 3.16 µM, first compound 0.1 µM
[33] = second compound 3.16 µM, first compound 0.316 µM
[34] = second compound 3.16 µM, first compound 1 µM
[35] = second compound 3.16 µM, first compound 3.16 µM
[36] = second compound 3.16 µM, first compound 10 µM
[37] = second compound 10 µM, first compound 0.0316 µM
[38] = second compound 10 µM, first compound 0.1 µM
[39] = second compound 10 µM, first compound 0.316 µM
[40] = second compound 10 µM, first compound 1 µM
[41] = second compound 10 µM, first compound 3.16 µM
[42] = second compound 10 µM, first compound 10 µM
[43] = second compound 0.0316 µM, first compound 0.00316 µM
[44] = second compound 0.0316 µM, first compound 0.01 µM
[45] = second compound 0.1 µM, first compound 0.00316 µM
[46] = second compound 0.1 µM, first compound 0.01 µM
[47] = second compound 0.316 µM, first compound 0.00316 µM
[48] = second compound 0.316 µM, first compound 0.01 µM
[49] = second compound 1 µM, first compound 0.00316 µM
[50] = second compound 1 µM, first compound 0.01 µM
[51] = second compound 3.16 µM, first compound 0.00316 µM
[52] = second compound 3.16 µM, first compound 0.01 µM
[53] = second compound 10 µM, first compound 0.00316 µM
[54] = second compound 10 µM, first compound 0.01 µM
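Further: compound exposure lasted seven days before readout.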
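Wherever viability, T/C is given: 100% = DMSO vehicle control wells.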

## O=C(c1cc(Cc2n[nH]c(=O)c3ccccc23)ccc1F)N1CCN(C(=O)C2CC2)CC1 + CN1CCN(c2cc(C(=O)Nc3cc4cc(-c5cnn(C)c5)ccc4cn3)ccn2)CC1
[1]
  IC50: > 10000 nM
[2]
  IC50: > 10000 nM
[3]
  IC50: < 31.6 nM
[4]
  IC50: < 31.6 nM
[5]
  IC50: < 31.6 nM
[6]
  IC50: < 31.6 nM
[7]
  viability, T/C: 95.8%
[8]
  viability, T/C: 97.4%
[9]
  viability, T/C: 97.2%
[10]
  viability, T/C: 103%
[11]
  viability, T/C: 102%
[12]
  viability, T/C: 93.6%
[13]
  viability, T/C: 82.5%
[14]
  viability, T/C: 82.8%
[15]
  viability, T/C: 82.7%
[16]
  viability, T/C: 73.9%
[17]
  viability, T/C: 73.2%
[18]
  viability, T/C: 69%
[19]
  viability, T/C: 24.6%
[20]
  viability, T/C: 25.8%
[21]
  viability, T/C: 23.1%
[22]
  viability, T/C: 24.8%
[23]
  viability, T/C: 24.2%
[24]
  viability, T/C: 21.7%
[25]
  viability, T/C: 0.33%
[26]
  viability, T/C: 0.74%
[27]
  viability, T/C: 2.04%
[28]
  viability, T/C: 0.29%
[29]
  viability, T/C: 1.71%
[30]
  viability, T/C: 0.32%
[31]
  viability, T/C: 2.76%
[32]
  viability, T/C: 1.64%
[33]
  viability, T/C: 1.3%
[34]
  viability, T/C: 1.29%
[35]
  viability, T/C: 1.16%
[36]
  viability, T/C: 1.05%
[37]
  viability, T/C: 1.59%
[38]
  viability, T/C: 0.89%
[39]
  viability, T/C: 0.83%
[40]
  viability, T/C: 0.77%
[41]
  viability, T/C: 1.1%
[42]
  viability, T/C: 0.59%

## COc1c(OCCCN2CCOCC2)ccc2c3n(c(=NC(=O)c4cnc(N)nc4)nc12)CCN3 + CN1CCN(c2cc(C(=O)Nc3cc4cc(-c5cnn(C)c5)ccc4cn3)ccn2)CC1
[1]
  IC50: 27 nM
[2]
  IC50: 7.37 nM
[3]
  IC50: < 3.16 nM
[4]
  IC50: < 3.16 nM
[5]
  IC50: < 3.16 nM
[6]
  IC50: < 3.16 nM
[43]
  viability, T/C: 93.9%
[44]
  viability, T/C: 69%
[7]
  viability, T/C: 50%
[8]
  viability, T/C: 25.4%
[9]
  viability, T/C: 14.8%
[10]
  viability, T/C: 12.5%
[45]
  viability, T/C: 68.3%
[46]
  viability, T/C: 43%
[13]
  viability, T/C: 21.3%
[14]
  viability, T/C: 7.94%
[15]
  viability, T/C: 6.07%
[16]
  viability, T/C: 5.15%
[47]
  viability, T/C: 20%
[48]
  viability, T/C: 11.7%
[19]
  viability, T/C: 3.4%
[20]
  viability, T/C: 1.12%
[21]
  viability, T/C: 1.11%
[22]
  viability, T/C: 0.75%
[49]
  viability, T/C: 2.09%
[50]
  viability, T/C: 0.39%
[25]
  viability, T/C: 0.99%
[26]
  viability, T/C: 0.18%
[27]
  viability, T/C: 0.78%
[28]
  viability, T/C: 0.88%
[51]
  viability, T/C: 2.33%
[52]
  viability, T/C: 1.2%
[31]
  viability, T/C: 1.43%
[32]
  viability, T/C: 0.42%
[33]
  viability, T/C: 0.95%
[34]
  viability, T/C: 0.47%
[53]
  viability, T/C: 0.65%
[54]
  viability, T/C: 0.74%
[37]
  viability, T/C: 0.78%
[38]
  viability, T/C: 0.76%
[39]
  viability, T/C: 1.19%
[40]
  viability, T/C: 0.45%

## Nc1ccccc1NC(=O)c1ccc(CNC(=O)OCc2cccnc2)cc1
Compound 0.0316 µM
  viability, T/C: 100% and 92.4%
Compound 0.1 µM
  viability, T/C: 88.7% and 92%
Compound 0.316 µM
  viability, T/C: 85.5% and 84.9%
Compound 1 µM
  viability, T/C: 110% and 100%
Compound 3.16 µM
  viability, T/C: 76.6% and 48%
Compound 10 µM
  viability, T/C: 23.2% and 13.7%
Curve of compound
  IC50: 5600 nM and 3010 nM

## CC1(C)CCC(CN2CCN(c3ccc(C(=O)NS(=O)(=O)c4ccc(NCC5CCOCC5)c([N+](=O)[O-])c4)c(Oc4cnc5[nH]ccc5c4)c3)CC2)=C(c2ccc(Cl)cc2)C1 + CN1CCN(c2cc(C(=O)Nc3cc4cc(-c5cnn(C)c5)ccc4cn3)ccn2)CC1
[1]
  IC50: 5780 nM
[2]
  IC50: 5350 nM
[3]
  IC50: < 31.6 nM
[4]
  IC50: < 31.6 nM
[5]
  IC50: < 31.6 nM
[6]
  IC50: < 31.6 nM
[7]
  viability, T/C: 92.5%
[8]
  viability, T/C: 93.2%
[9]
  viability, T/C: 94.6%
[10]
  viability, T/C: 92.1%
[11]
  viability, T/C: 104%
[12]
  viability, T/C: 8.6%
[13]
  viability, T/C: 82.4%
[14]
  viability, T/C: 76.3%
[15]
  viability, T/C: 87.6%
[16]
  viability, T/C: 94.5%
[17]
  viability, T/C: 101%
[18]
  viability, T/C: 4.42%
[19]
  viability, T/C: 30.1%
[20]
  viability, T/C: 32.8%
[21]
  viability, T/C: 23.6%
[22]
  viability, T/C: 30.9%
[23]
  viability, T/C: 25.3%
[24]
  viability, T/C: 2.48%
[25]
  viability, T/C: 0.62%
[26]
  viability, T/C: 0.92%
[27]
  viability, T/C: 0.31%
[28]
  viability, T/C: 0.75%
[29]
  viability, T/C: 1.8%
[30]
  viability, T/C: 0.48%
[31]
  viability, T/C: 1.95%
[32]
  viability, T/C: 0.91%
[33]
  viability, T/C: 1.71%
[34]
  viability, T/C: 1.07%
[35]
  viability, T/C: 1.36%
[36]
  viability, T/C: 0.41%
[37]
  viability, T/C: 0.95%
[38]
  viability, T/C: 1.04%
[39]
  viability, T/C: 1.34%
[40]
  viability, T/C: 0.91%
[41]
  viability, T/C: 0.55%
[42]
  viability, T/C: 0.2%

## CCN1CCN(Cc2ccc(Nc3ncc(F)c(-c4cc(F)c5nc(C)n(C(C)C)c5c4)n3)nc2)CC1 + CN1CCN(c2cc(C(=O)Nc3cc4cc(-c5cnn(C)c5)ccc4cn3)ccn2)CC1
[1]
  IC50: > 1000 nM
[2]
  IC50: > 1000 nM
[3]
  IC50: < 3.16 nM
[4]
  IC50: < 3.16 nM
[5]
  IC50: < 3.16 nM
[6]
  IC50: < 3.16 nM
[43]
  viability, T/C: 85.5%
[44]
  viability, T/C: 79.4%
[7]
  viability, T/C: 95.7%
[8]
  viability, T/C: 103%
[9]
  viability, T/C: 99%
[10]
  viability, T/C: 102%
[45]
  viability, T/C: 78.9%
[46]
  viability, T/C: 100%
[13]
  viability, T/C: 91.4%
[14]
  viability, T/C: 79.5%
[15]
  viability, T/C: 71.9%
[16]
  viability, T/C: 69.3%
[47]
  viability, T/C: 25.5%
[48]
  viability, T/C: 32.6%
[19]
  viability, T/C: 28.9%
[20]
  viability, T/C: 29.9%
[21]
  viability, T/C: 36.8%
[22]
  viability, T/C: 31.8%
[49]
  viability, T/C: 0.99%
[50]
  viability, T/C: 0.98%
[25]
  viability, T/C: 0.48%
[26]
  viability, T/C: 0.4%
[27]
  viability, T/C: 1.43%
[28]
  viability, T/C: 1.19%
[51]
  viability, T/C: 2.53%
[52]
  viability, T/C: 1.22%
[31]
  viability, T/C: 0.9%
[32]
  viability, T/C: 1.58%
[33]
  viability, T/C: 1.39%
[34]
  viability, T/C: 2.07%
[53]
  viability, T/C: 0.79%
[54]
  viability, T/C: 0.62%
[37]
  viability, T/C: 1.4%
[38]
  viability, T/C: 1.82%
[39]
  viability, T/C: 0.83%
[40]
  viability, T/C: 0.55%

## CC1(C)CCC(CN2CCN(c3ccc(C(=O)NS(=O)(=O)c4ccc(NCC5CCOCC5)c([N+](=O)[O-])c4)c(Oc4cnc5[nH]ccc5c4)c3)CC2)=C(c2ccc(Cl)cc2)C1
Compound 0.0316 µM
  viability, T/C: 94.3% and 88.2%
Compound 0.1 µM
  viability, T/C: 85.8% and 90.3%
Compound 0.316 µM
  viability, T/C: 97% and 104%
Compound 1 µM
  viability, T/C: 86.5% and 99.3%
Compound 3.16 µM
  viability, T/C: 106% and 110%
Compound 10 µM
  viability, T/C: 10.5% and 10%
Curve of compound
  IC50: 5800 nM and 5950 nM

Source: PubChem BioAssay AID2060625 (Molecular Pharmacology Branch, DTP, NCI, 2025)
